In patent publication US7342011B2, “Rifamycin analogs and uses thereof” (priority 2003, dated 2008):
Converted amounts (≈) assume the structure as drawn.

Tested on: E. coli
Assay: MIC assay, E. coli
Format: cell-based

Compound	MIC (μg/mL) E. coli [µg/mL]
CO[C@H]1/C=C/O[C@@]2(C)Oc3c(C)c(O)c4c(=O)c(c5oc6cc(N7CCC(N8CCOCC8)CC7)cc(O)c6nc-5c4c3C2=O)NC(=O)/C(C)=C\C=C\[C@H](C)[C@H](O)[C@@H](C)[C@@H](O)[C@@H](C)[C@H](O)[C@@H]1C [Compound 11, 25-O-deacetyl-3′-hydroxy-5′-(4-morpholinyl-1-piperidinyl)benzoxazinorifamycin]	4 (≈ 4.31 µM)
25-O-deacetyl-5′-[(8aR)octahydropyrrolo[1,2-a]pyrazin-2-yl]benzthiazinorifamycin [Compound 78]	4
COCCOC(=O)NC1CCN(c2cc(O)c3nc4c5c6c7c(C)c(O)c5c(=O)c(c-4oc3c2)NC(=O)C(C)=CC=CC(C)C(O)C(C)C(O)C(C)C(O)C(C)C(OC)C=COC(C)(O7)C6=O)CC1 (centres unmarked) [Compound 63, 25-O-deacetyl-3′-hydroxy-5′-[4-methoxyethylcarbamyl-1-piperidinyl]benzoxazinorifamycin]	8 (≈ 8.34 µM)
CO[C@H]1/C=C/O[C@@]2(C)Oc3c(C)c(O)c4c(=O)c(c5oc6cc(N7C[C@H]8CCCN[C@H]8C7)cc(O)c6nc-5c4c3C2=O)NC(=O)/C(C)=C\C=C\[C@H](C)[C@H](O)[C@@H](C)[C@@H](O)[C@@H](C)[C@H](OC(C)=O)[C@@H]1C [Compound 12, 3′-hydroxy-5′-[(4aR,7aR)-octahydro-6H-pyrrolo[3,4-b]pyridin-6-yl]benzoxazinorifamycin]	8 (≈ 8.65 µM)
COC1C=COC2(C)Oc3c(C)c(O)c4c(=O)c(c5oc6cc(N7CC8C(N)C8C7)cc(O)c6nc-5c4c3C2=O)NC(=O)C(C)=CC=CC(C)C(O)C(C)C(O)C(C)C(O)C1C [Compound 20, 25-O-deacetyl-3′-hydroxy-5′-[6-amino-(1R,5S)-3-azabicyclo[3.1.0]hex-3-yl]benzoxazinorifamycin]	>8
CO[C@H]1/C=C/O[C@@]2(C)Oc3c(C)c(O)c4c(=O)c(c5oc6cc(N7CCC(N)CC7)cc(O)c6nc-5c4c3C2=O)NC(=O)/C(C)=C\C=C\[C@H](C)[C@H](O)[C@@H](C)[C@@H](O)[C@@H](C)[C@H](OC(C)=O)[C@@H]1C [Compound 33, 3′-hydroxy-5′-[4-amino-1-piperidinyl]benzoxazinorifamycin]	>8
CO[C@H]1/C=C/O[C@@]2(C)Oc3c(C)c(O)c4c(=O)c(c5oc6cc(N7C[C@@H]8CCCN[C@@H]8C7)cc(O)c6nc-5c4c3C2=O)NC(=O)/C(C)=C\C=C\[C@H](C)[C@H](O)[C@@H](C)[C@@H](O)[C@@H](C)[C@H](O)[C@@H]1C [Compound 7, 25-O-deacetyl-3′-hydroxy-5′-[(4aS,7aS)-octahydro-6H-pyrrolo[3,4-b]pyridin-6-yl]benzoxazinorifamycin]	>8
CO[C@H]1/C=C/O[C@@]2(C)Oc3c(C)c(O)c4c(=O)c(c5oc6cc(N7CCC(N8CCOCC8)CC7)cc(O)c6nc-5c4c3C2=O)NC(=O)/C(C)=C\C=C\[C@H](C)[C@H](O)[C@@H](C)[C@@H](O)[C@@H](C)[C@H](OC(C)=O)[C@@H]1C [Compound 9, 3′-hydroxy-5′-(4-morpholinyl-1-piperidinyl)benzoxazinorifamycin]	8 (≈ 8.26 µM)
CCOC(=O)NC1CCN(c2ccc3nc4c5c6c7c(C)c(O)c5c(=O)c(c-4n(C)c3c2)NC(=O)/C(C)=C\C=C\[C@H](C)[C@H](O)[C@@H](C)[C@@H](O)[C@@H](C)[C@H](O)[C@H](C)[C@@H](OC)/C=C/O[C@@](C)(O7)C6=O)CC1 [Compound 31]	8 (≈ 8.64 µM)
CO[C@H]1/C=C/O[C@@]2(C)Oc3c(C)c(O)c4c(=O)c(c5oc6cc(N7C[C@H]8CCCN[C@H]8C7)cc(O)c6nc-5c4c3C2=O)NC(=O)/C(C)=C\C=C\[C@H](C)[C@H](O)[C@@H](C)[C@@H](O)[C@@H](C)[C@H](O)[C@@H]1C [Compound 15, 25-O-deacetyl-3′-hydroxy-5′-[(4aR,7aR)-octahydro-6H-pyrrolo[3,4-b]pyridin-6-yl]benzoxazinorifamycin]	>8
CCNC(=O)NC1CCN(c2cc(O)c3nc4c5c6c7c(C)c(O)c5c(=O)c(c-4oc3c2)NC(=O)/C(C)=C\C=C\[C@H](C)[C@H](O)[C@@H](C)[C@@H](O)[C@@H](C)[C@H](OC(C)=O)[C@H](C)[C@@H](OC)/C=C/O[C@@](C)(O7)C6=O)CC1 [Compound 34, 3′-hydroxy-5′-[4-ethyluryl-1-piperidinyl]benzoxazinorifamycin]	8 (≈ 8.25 µM)
COC1C=COC2(C)Oc3c(C)c(O)c4c(=O)c(c5oc6cc(N7CCC(CNC(C)=O)CC7)cc(O)c6nc-5c4c3C2=O)NC(=O)C(C)=CC=CC(C)C(O)C(C)C(O)C(C)C(O)C1C (centres unmarked) [Compound 56, 25-O-deacetyl-3′-hydroxy-5′-[4-acetylaminomethyl-1-piperidinyl]benzoxazinorifamycin]	8 (≈ 8.76 µM)
CCOC(=O)NC1C2CN(c3cc(O)c4nc5c6c7c8c(C)c(O)c6c(=O)c(c-5oc4c3)NC(=O)C(C)=CC=CC(C)C(O)C(C)C(O)C(C)C(OC(C)=O)C(C)C(OC)C=COC(C)(O8)C7=O)CC21 (centres unmarked) [Compound 21]	4 (≈ 4.13 µM)
CCOC(=O)NCC1CCN(c2cc(O)c3nc4c5c6c7c(C)c(O)c5c(=O)c(c-4oc3c2)NC(=O)C(C)=CC=CC(C)C(O)C(C)C(O)C(C)C(O)C(C)C(OC)C=COC(C)(O7)C6=O)CC1 (centres unmarked) [Compound 60, 25-O-deacetyl-3′-hydroxy-5′-[4-ethylcarbamylmethyl-1-piperidinyl]benzoxazinorifamycin]	>8
CCNC(=O)NC1CCN(c2cc(O)c3nc4c5c6c7c(C)c(O)c5c(=O)c(c-4oc3c2)NC(=O)C(C)=CC=CC(C)C(O)C(C)C(O)C(C)C(O)C(C)C(OC)C=COC(C)(O7)C6=O)CC1 (centres unmarked) [Compound 37, 25-O-deacetyl-3′-hydroxy-5′-[4-ethyluryl-1-piperidinyl]benzoxazinorifamycin]	>8
CO[C@H]1/C=C/O[C@@]2(C)Oc3c(C)c(O)c4c(=O)c(c5oc6cc(N7CCC(NC(=O)OC(C)C)CC7)cc(O)c6nc-5c4c3C2=O)NC(=O)/C(C)=C\C=C\[C@H](C)[C@H](O)[C@@H](C)[C@@H](O)[C@@H](C)[C@H](OC(C)=O)[C@@H]1C [Compound 22]	>8
CO[C@H]1/C=C/O[C@@]2(C)Oc3c(C)c(O)c4c(=O)c(c5oc6cc(N7CCC(N(C)C)CC7)cc(O)c6nc-5c4c3C2=O)NC(=O)/C(C)=C\C=C\[C@H](C)[C@H](O)[C@@H](C)[C@@H](O)[C@@H](C)[C@H](O)[C@@H]1C [Compound 18, 25-O-deacetyl-3′-hydroxy-5′-(4-N,N dimethylamino-1-piperidinyl)benzoxazinorifamycin]	4 (≈ 4.52 µM)
COC1C=COC2(C)Oc3c(C)c(O)c4c(=O)c(c5oc6cc(N7CCC(NC(C)=O)CC7)cc(O)c6nc-5c4c3C2=O)NC(=O)C(C)=CC=CC(C)C(O)C(C)C(O)C(C)C(O)C1C (centres unmarked) [Compound 43, 25-O-deacetyl-3′-hydroxy-5′-[4-acetamide-1-piperidinyl]benzoxazinorifamycin]	>8
COC1C=COC2(C)Oc3c(C)c(O)c4c(=O)c(c5oc6cc(N7CC8C(C7)C8NC(=O)OCC[Si](C)(C)C)cc(O)c6nc-5c4c3C2=O)NC(=O)C(C)=CC=CC(C)C(O)C(C)C(O)C(C)C(OC(C)=O)C1C [Compound 2, 3′-hydroxy-5′-[6-(2-trimethylsilyl)ethylcarbamyl-(1R,5S)-3-azabicyclo[3.1.0]hex-3-yl]benzoxazinorifamycin]	>8
CO[C@H]1/C=C/O[C@@]2(C)Oc3c(C)c(O)c4c(=O)c(c5oc6cc(N7CCC(NS(=O)(=O)C(F)(F)F)CC7)cc(O)c6nc-5c4c3C2=O)NC(=O)/C(C)=C\C=C\[C@H](C)[C@H](O)[C@@H](C)[C@@H](O)[C@@H](C)[C@H](OC(C)=O)[C@@H]1C [Compound 23]	>8
COC1C=COC2(C)Oc3c(C)c(O)c4c(=O)c(c5oc6cc(N7CCC(NC(=O)OC(C)(C)C)CC7)cc(O)c6nc-5c4c3C2=O)NC(=O)C(C)=CC=CC(C)C(O)C(C)C(O)C(C)C(O)C1C (centres unmarked) [Compound 52, 25-O-deacetyl-3′-hydroxy-5′-[4-(2,2-dimethylethyl)carbamyl-1-piperidinyl]benzoxazinorifamycin]	>8
COC(=O)NC1CCN(c2cc(O)c3nc4c5c6c7c(C)c(O)c5c(=O)c(c-4oc3c2)NC(=O)/C(C)=C\C=C\[C@H](C)[C@H](O)[C@@H](C)[C@@H](O)[C@@H](C)[C@H](O)[C@H](C)[C@@H](OC)/C=C/O[C@@](C)(O7)C6=O)CC1 [Compound 30, 25-O-deacetyl-3′-hydroxy-5′-[4-methylcarbamyl-1-piperidinyl]benzoxazinorifamycin]	>8
CCCC(=O)NC1CCN(c2cc(O)c3nc4c5c6c7c(C)c(O)c5c(=O)c(c-4oc3c2)NC(=O)/C(C)=C\C=C\[C@H](C)[C@H](O)[C@@H](C)[C@@H](O)[C@@H](C)[C@H](OC(C)=O)[C@H](C)[C@@H](OC)/C=C/O[C@@](C)(O7)C6=O)CC1 [Compound 24, 3′-hydroxy-5′-[4-butanamide-1-piperidinyl]benzoxazinorifamycin]	>8
CO[C@H]1/C=C/O[C@@]2(C)Oc3c(C)c(O)c4c(=O)c(c5oc6cc(N7CCC(NC(=O)OCC(C)C)CC7)cc(O)c6nc-5c4c3C2=O)NC(=O)/C(C)=C\C=C\[C@H](C)[C@H](O)[C@@H](C)[C@@H](O)[C@@H](C)[C@H](OC(C)=O)[C@@H]1C [Compound 13]	4 (≈ 4 µM)
CCCNC(=O)NC1CCN(c2cc(O)c3nc4c5c6c7c(C)c(O)c5c(=O)c(c-4oc3c2)NC(=O)/C(C)=C\C=C\[C@H](C)[C@H](O)[C@@H](C)[C@@H](O)[C@@H](C)[C@H](OC(C)=O)[C@H](C)[C@@H](OC)/C=C/O[C@@](C)(O7)C6=O)CC1 [Compound 28, 3′-hydroxy-5′-[4-propyluryl-1-piperidinyl]benzoxazinorifamycin]	>8
CO[C@H]1/C=C/O[C@@]2(C)Oc3c(C)c(O)c4c(=O)c(c5oc6cc(N7CCC(N(C)C)CC7)cc(O)c6nc-5c4c3C2=O)NC(=O)/C(C)=C\C=C\[C@H](C)[C@H](O)[C@@H](C)[C@@H](O)[C@@H](C)[C@H](OC(C)=O)[C@@H]1C [Compound 17, 3′-hydroxy-5′-(4-N,N-dimethylamino-1-piperidinyl)benzoxazinorifamycin]	8 (≈ 8.63 µM)
